From PMC5218480 (PLoS ONE, 2017) come the findings set out here.

The subject of the test is MV-4-11 cells. Description: Gene expression microarray analysis (Affymetrix PrimeView) and GSEA. Type of test: cell-based, human. Also noted: RFU PODN (11730768_x_at) / Fold change /veh PODN (11730768_x_at) / RFU LINC00158 (11744669_a_at) / Fold change /veh LINC00158 (11744669_a_at) / RFU DUSP10 (11751237_a_at) / Fold change /veh DUSP10 (11751237_a_at) / RFU ID3 (11757404_x_at) / Fold change /veh ID3 (11757404_x_at) / RFU PLEKHG5 (11737974_s_at) / Fold change /veh PLEKHG5 (11737974_s_at) / RFU LRRC4B (11730491_at) / Fold change /veh LRRC4B (11730491_at) / RFU GIMAP4 (11747438_a_at) / Fold change /veh GIMAP4 (11747438_a_at) / RFU KRT8 (11758183_x_at) / Fold change /veh KRT8 (11758183_x_at) / RFU CNN1 (11734310_a_at) / Fold change /veh CNN1 (11734310_a_at) / RFU VPS37D (11726825_at) / Fold change /veh VPS37D (11726825_at) / RFU C10orf10 (11716522_x_at) / Fold change /veh C10orf10 (11716522_x_at) / RFU KIR2DL2 /// KIR2DL4 /// KIR2DL5A /// KIR2DL5B /// KIR2DS1 /// KIR2DS2 /// KIR2DS3 /// KIR2DS4 /// KIR3DL3 /// KIR3DL3 /// KIR3DS1 (11738374_at) / Fold change /veh KIR2DL2 /// KIR2DL4 /// KIR2DL5A /// KIR2DL5B /// KIR2DS1 /// KIR2DS2 /// KIR2DS3 /// KIR2DS4 /// KIR3DL3 /// KIR3DL3 /// KIR3DS1 (11738374_at) / RFU C1QL1 (11718748_at) / Fold change /veh C1QL1 (11718748_at) / RFU TMPRSS4 (11747572_a_at) / Fold change /veh TMPRSS4 (11747572_a_at) / RFU HAMP (11756126_x_at) / Fold change /veh HAMP (11756126_x_at) / RFU RNFT2 (11725882_a_at) / Fold change /veh RNFT2 (11725882_a_at) / RFU NR4A2 (11747474_a_at) / Fold change /veh NR4A2 (11747474_a_at) / RFU ABCC12 (11746883_a_at) / Fold change /veh ABCC12 (11746883_a_at) / RFU TMEM136 (11760407_x_at) / Fold change /veh TMEM136 (11760407_x_at) / RFU CLDN22 /// WWC2 (11732394_at) / Fold change /veh CLDN22 /// WWC2 (11732394_at) / RFU HLA-DPB1 (11760878_x_at) / Fold change /veh HLA-DPB1 (11760878_x_at) / RFU SPINT1 (11716480_a_at) / Fold change /veh SPINT1 (11716480_a_at) / RFU GAP43 (11754022_s_at) / Fold change /veh GAP43 (11754022_s_at) / RFU A4GNT (11735810_at) / Fold change /veh A4GNT (11735810_at) / RFU PRB3 (11715151_x_at) / Fold change /veh PRB3 (11715151_x_at) / RFU TUBB4B (11761932_at) / Fold change /veh TUBB4B (11761932_at) / RFU CAPN14 (11732068_a_at) / Fold change /veh CAPN14 (11732068_a_at) / RFU TMCC2 (11721928_a_at) / Fold change /veh TMCC2 (11721928_a_at) / RFU IRGQ (11745062_a_at) / Fold change /veh IRGQ (11745062_a_at) / RFU FAM174B (11720279_a_at) / Fold change /veh FAM174B (11720279_a_at) / RFU TMPRSS4 (11748680_a_at) / Fold change /veh TMPRSS4 (11748680_a_at) / RFU FAM212B (11763350_a_at) / Fold change /veh FAM212B (11763350_a_at) / RFU PLEKHG5 (11743358_a_at) / Fold change /veh PLEKHG5 (11743358_a_at) / RFU ZSCAN30 (11745921_a_at) / Fold change /veh ZSCAN30 (11745921_a_at) / RFU CMKLR1 (11741424_a_at) / Fold change /veh CMKLR1 (11741424_a_at) / RFU LOC101060620 /// MAPK8IP1 (11723275_at) / Fold change /veh LOC101060620 /// MAPK8IP1 (11723275_at) / RFU SPTSSB (11747773_x_at) / Fold change /veh SPTSSB (11747773_x_at) / RFU PRSS12 (11739890_at) / Fold change /veh PRSS12 (11739890_at) / RFU BIN1 (11741810_x_at) / Fold change /veh BIN1 (11741810_x_at) / RFU WNT11 (11732464_a_at) / Fold change /veh WNT11 (11732464_a_at) / RFU C10orf10 (11716521_a_at) / Fold change /veh C10orf10 (11716521_a_at) / RFU C5orf56 (11738089_at) / Fold change /veh C5orf56 (11738089_at) / RFU CYB561 (11721691_x_at) / Fold change /veh CYB561 (11721691_x_at) / RFU ANKRD19P (11752326_a_at) / Fold change /veh ANKRD19P (11752326_a_at) / RFU OR2T12 /// OR2T33 /// OR2T8 (11738714_s_at) / Fold change /veh OR2T12 /// OR2T33 /// OR2T8 (11738714_s_at) / RFU VCAN (11748164_a_at) / Fold change /veh VCAN (11748164_a_at) / RFU JSRP1 (11732532_at) / Fold change /veh JSRP1 (11732532_at) / RFU KRTAP10-11 (11738290_x_at) / Fold change /veh KRTAP10-11 (11738290_x_at) / RFU MYO3A (11730013_a_at) / Fold change /veh MYO3A (11730013_a_at) / RFU EBF3 (11725865_a_at) / Fold change /veh EBF3 (11725865_a_at) / RFU CAMK2N1 (11719241_x_at) / Fold change /veh CAMK2N1 (11719241_x_at) / RFU C5orf56 (11738088_a_at) / Fold change /veh C5orf56 (11738088_a_at) / RFU OLFML3 (11715873_a_at) / Fold change /veh OLFML3 (11715873_a_at) / RFU LOC100653217 /// NTM (11731650_a_at) / Fold change /veh LOC100653217 /// NTM (11731650_a_at) / RFU MAPK11 (11762145_a_at) / Fold change /veh MAPK11 (11762145_a_at) / RFU FIZ1 (11724087_x_at) / Fold change /veh FIZ1 (11724087_x_at) / RFU OASL (11726364_x_at) / Fold change /veh OASL (11726364_x_at) / RFU SOX15 (11748057_x_at) / Fold change /veh SOX15 (11748057_x_at) / RFU CD79A (11719716_a_at) / Fold change /veh CD79A (11719716_a_at) / RFU HIST1H1D (11736915_at) / Fold change /veh HIST1H1D (11736915_at) / RFU CASKIN2 (11723855_a_at) / Fold change /veh CASKIN2 (11723855_a_at) / RFU LOC730098 (11760151_x_at) / Fold change /veh LOC730098 (11760151_x_at) / RFU OR4N2 (11742367_at) / Fold change /veh OR4N2 (11742367_at) / RFU PRRT2 (11749266_a_at) / Fold change /veh PRRT2 (11749266_a_at) / RFU SNX32 (11753110_a_at) / Fold change /veh SNX32 (11753110_a_at) / RFU CDHR5 (11726645_a_at) / Fold change /veh CDHR5 (11726645_a_at) / RFU RCAN1 (11760418_a_at) / Fold change /veh RCAN1 (11760418_a_at) / RFU FAM167A (11723789_a_at) / Fold change /veh FAM167A (11723789_a_at) / RFU FAM26E (11764081_at) / Fold change /veh FAM26E (11764081_at) / RFU ISYNA1 (11749810_s_at) / Fold change /veh ISYNA1 (11749810_s_at) / RFU ACY1 (11761880_at) / Fold change /veh ACY1 (11761880_at) / RFU 11764098_at / Fold change /veh 11764098_at / RFU SAMD14 (11745864_x_at) / Fold change /veh SAMD14 (11745864_x_at) / RFU NPB (11741838_a_at) / Fold change /veh NPB (11741838_a_at) / RFU TMPRSS6 (11731388_a_at) / Fold change /veh TMPRSS6 (11731388_a_at) / RFU KRTAP10-2 (11738614_at) / Fold change /veh KRTAP10-2 (11738614_at) / RFU ARHGAP8 /// PRR5-ARHGAP8 (11727945_x_at) / Fold change /veh ARHGAP8 /// PRR5-ARHGAP8 (11727945_x_at) / RFU KRTAP5-7 /// NADSYN1 (11734609_at) / Fold change /veh KRTAP5-7 /// NADSYN1 (11734609_at) / RFU RASL12 (11751679_a_at) / Fold change /veh RASL12 (11751679_a_at) / RFU CDKN2B (11736163_a_at) / Fold change /veh CDKN2B (11736163_a_at) / RFU PRF1 (11729649_at) / Fold change /veh PRF1 (11729649_at) / RFU, ZNF638 /// ZNF638-IT1 / Fold change vs veh, ZNF638 /// ZNF638-IT1 / RFU, PANK3 / Fold change vs veh, PANK3 / RFU, SH3YL1 / Fold change vs veh, SH3YL1 / RFU, ZEB2 / Fold change vs veh, ZEB2 / RFU, NRIP1 / Fold change vs veh, NRIP1 / RFU, PTTG1IP / Fold change vs veh, PTTG1IP / RFU, CAPN2 / Fold change vs veh, CAPN2 / RFU, MED14 / Fold change vs veh, MED14 / RFU, SNORA58 / Fold change vs veh, SNORA58 / RFU, C1orf63 / Fold change vs veh, C1orf63 / RFU, LRRFIP1 / Fold change vs veh, LRRFIP1 / RFU, NDUFAF7 / Fold change vs veh, NDUFAF7 / RFU, SLC12A2 / Fold change vs veh, SLC12A2 / RFU, IBTK / Fold change vs veh, IBTK / RFU, ESF1 / Fold change vs veh, ESF1 / Fold change vs veh, TMEM50B / RFU, TAOK1 / Fold change vs veh, TAOK1 / RFU, ACBD3 / Fold change vs veh, ACBD3 / RFU, TMA16 / Fold change vs veh, TMA16 / RFU, RWDD3 / Fold change vs veh, RWDD3 / RFU, BCAT1 / Fold change vs veh, BCAT1 / RFU, EDEM3 / Fold change vs veh, EDEM3 / RFU, TMEM33 / Fold change vs veh, TMEM33 / RFU, WDR75 / Fold change vs veh, WDR75 / RFU, AHCTF1 / Fold change vs veh, AHCTF1 / RFU, TFRC / Fold change vs veh, TFRC / RFU, ZDHHC17 / Fold change vs veh, ZDHHC17 / RFU, NOM1 / Fold change vs veh, NOM1 / RFU, ARL8B / Fold change vs veh, ARL8B / RFU, ZBTB11 / Fold change vs veh, ZBTB11 / RFU, TAMM41 / Fold change vs veh, TAMM41 / RFU, KIAA1704 /// LOC100996395 / Fold change vs veh, KIAA1704 /// LOC100996395 / RFU, ING1 / Fold change vs veh, ING1 / RFU, TRMT61B / Fold change vs veh, TRMT61B / RFU, FUBP3 / Fold change vs veh, FUBP3 / RFU, TP53 / Fold change vs veh, TP53 / RFU, TNKS2 / Fold change vs veh, TNKS2 / RFU, ZFP14 / Fold change vs veh, ZFP14 / RFU, ACTR2 / Fold change vs veh, ACTR2 / RFU, PPP3R1 / Fold change vs veh, PPP3R1 / RFU, PIK3R1 / Fold change vs veh, PIK3R1 / RFU, HNRNPA1 / Fold change vs veh, HNRNPA1 / RFU, RNF170 / Fold change vs veh, RNF170 / RFU, ZNF28 / Fold change vs veh, ZNF28 / RFU, RNGTT / Fold change vs veh, RNGTT / RFU, OGT / Fold change vs veh, OGT / RFU, BRD1 / Fold change vs veh, BRD1 / RFU, MARS / Fold change vs veh, MARS / RFU, ZNF655 / Fold change vs veh, ZNF655 / RFU, FAHD1 / Fold change vs veh, FAHD1 / RFU, BDP1 / Fold change vs veh, BDP1 / RFU, LRRCC1 / Fold change vs veh, LRRCC1 / RFU, ARID1A / Fold change vs veh, ARID1A / RFU, ZNF146 / Fold change vs veh, ZNF146 / RFU, ZNF330 / Fold change vs veh, ZNF330 / RFU, GPN3 / Fold change vs veh, GPN3 / RFU, C9orf123 / Fold change vs veh, C9orf123 / RFU, N4BP2L2 / Fold change vs veh, N4BP2L2 / RFU, ARFIP1 / Fold change vs veh, ARFIP1 / RFU, FAM179B / Fold change vs veh, FAM179B / RFU, BCL10 / Fold change vs veh, BCL10 / RFU, UHRF1BP1L / Fold change vs veh, UHRF1BP1L / RFU, BET1 / Fold change vs veh, BET1 / RFU, CNOT2 / Fold change vs veh, CNOT2 / RFU, ZNF268 / Fold change vs veh, ZNF268 / Fold change vs veh, ZNF507 / RFU, DGCR2 / Fold change vs veh, DGCR2 / RFU, WDSUB1 / Fold change vs veh, WDSUB1 / Fold change vs veh, HSP90B1 /// MIR3652 / RFU, ADSS / Fold change vs veh, ADSS / RFU, GK / Fold change vs veh, GK / RFU, ZNF148 / Fold change vs veh, ZNF148 / RFU, TAF9 / Fold change vs veh, TAF9 / RFU, SLC1A5 / Fold change vs veh, SLC1A5 / RFU, SLMO2 / Fold change vs veh, SLMO2 / RFU, ABCC4 / Fold change vs veh, ABCC4 / RFU, LOC101060439 /// RAP1B / Fold change vs veh, LOC101060439 /// RAP1B / RFU, RFX7 / Fold change vs veh, RFX7 / RFU, GTPBP10 / Fold change vs veh, GTPBP10 / RFU, CNEP1R1 / Fold change vs veh, CNEP1R1 / RFU, BIVM-ERCC5 /// ERCC5 / Fold change vs veh, BIVM-ERCC5 /// ERCC5 / RFU, ILF3 / Fold change vs veh, ILF3 / RFU 11762660_at / Fold change /veh 11762660_at / RFU VCAN (11757783_s_at) / Fold change /veh VCAN (11757783_s_at) / RFU DDX43 (11728927_at) / Fold change /veh DDX43 (11728927_at) / RFU KRT8 (11758188_x_at) / Fold change /veh KRT8 (11758188_x_at) / RFU NKD1 (11759106_at) / Fold change /veh NKD1 (11759106_at) / RFU SRD5A1 (11742802_a_at) / Fold change /veh SRD5A1 (11742802_a_at) / RFU TPSAB1 /// TPSB2 (11721975_s_at) / Fold change /veh TPSAB1 /// TPSB2 (11721975_s_at) / RFU GSTM3 (11746129_a_at) / Fold change /veh GSTM3 (11746129_a_at) / RFU IL23R (11737362_x_at) / Fold change /veh IL23R (11737362_x_at) / RFU TMEM51 (11727254_a_at) / Fold change /veh TMEM51 (11727254_a_at) / RFU PIWIL2 (11732686_x_at) / Fold change /veh PIWIL2 (11732686_x_at) / RFU ORM1 (11744905_x_at) / Fold change /veh ORM1 (11744905_x_at) / RFU CCDC152 (11743942_at) / Fold change /veh CCDC152 (11743942_at) / RFU ECM1 (11717891_a_at) / Fold change /veh ECM1 (11717891_a_at) / RFU IL23R (11748794_a_at) / Fold change /veh IL23R (11748794_a_at) / RFU TNFAIP8L3 (11732012_x_at) / Fold change /veh TNFAIP8L3 (11732012_x_at) / RFU MBOAT4 (11741988_at) / Fold change /veh MBOAT4 (11741988_at) / RFU 11764193_at / Fold change /veh 11764193_at / RFU TMEM53 (11763286_at) / Fold change /veh TMEM53 (11763286_at) / RFU MAGEB2 (11727129_at) / Fold change /veh MAGEB2 (11727129_at) / RFU TMEM200A (11744735_a_at) / Fold change /veh TMEM200A (11744735_a_at) / RFU CCDC152 (11751479_a_at) / Fold change /veh CCDC152 (11751479_a_at) / RFU FAM211A (11726209_a_at) / Fold change /veh FAM211A (11726209_a_at) / RFU RGS16 (11746705_a_at) / Fold change /veh RGS16 (11746705_a_at) / RFU VCAN (11755009_s_at) / Fold change /veh VCAN (11755009_s_at) / RFU RHOB (11743442_s_at) / Fold change /veh RHOB (11743442_s_at) / RFU RGS16 (11720943_a_at) / Fold change /veh RGS16 (11720943_a_at) / RFU RGS16 (11720944_at) / Fold change /veh RGS16 (11720944_at) / RFU, VPS4B / Fold change vs veh, VPS4B / RFU, CREB1 / Fold change vs veh, CREB1 / RFU, DNAJC13 / Fold change vs veh, DNAJC13 / RFU, GNAQ / Fold change vs veh, GNAQ / RFU, CDK5R1 / Fold change vs veh, CDK5R1 / RFU, ZRANB3 / Fold change vs veh, ZRANB3 / RFU, CUL4A / Fold change vs veh, CUL4A / RFU, CCNY / Fold change vs veh, CCNY / RFU, UFL1 / Fold change vs veh, UFL1 / RFU, COG3 / Fold change vs veh, COG3 / RFU, DIAPH2 / Fold change vs veh, DIAPH2 / RFU, SKA2 / Fold change vs veh, SKA2 / RFU, AFF3 / Fold change vs veh, AFF3 / RFU, LMF1 / Fold change vs veh, LMF1 / RFU, IPO11 / Fold change vs veh, IPO11 / RFU, DFFB / Fold change vs veh, DFFB / RFU, FOXP1 / Fold change vs veh, FOXP1 / RFU, CARD8 / Fold change vs veh, CARD8 / RFU, STRN3 / Fold change vs veh, STRN3 / RFU, ADK / Fold change vs veh, ADK / RFU, RASSF2 / Fold change vs veh, RASSF2 / RFU, WIPF1 / Fold change vs veh, WIPF1 / RFU, LARP1B / Fold change vs veh, LARP1B / RFU, RASA1 / Fold change vs veh, RASA1 / RFU, RB1 / Fold change vs veh, RB1 / RFU, PPFIA1 / Fold change vs veh, PPFIA1 / RFU, MAT2A / Fold change vs veh, MAT2A / RFU, CCT5 / Fold change vs veh, CCT5 / RFU, WDR92 / Fold change vs veh, WDR92 / RFU, CUX1 / Fold change vs veh, CUX1 / RFU, TTC7A / Fold change vs veh, TTC7A / RFU, TMEM135 / Fold change vs veh, TMEM135 / RFU, DEPTOR / Fold change vs veh, DEPTOR / RFU, CPM / Fold change vs veh, CPM / RFU, DNAJB6 / Fold change vs veh, DNAJB6 / RFU, CACNA2D3 / Fold change vs veh, CACNA2D3 / RFU, DTX4 / Fold change vs veh, DTX4 / RFU, TFCP2 / Fold change vs veh, TFCP2 / RFU, GMCL1 /// GMCL1P1 / Fold change vs veh, GMCL1 /// GMCL1P1 / RFU, AEBP2 / Fold change vs veh, AEBP2 / RFU, SNHG1 /// SNORD22 /// SNORD25 /// SNORD26 /// SNORD27 /// SNORD28 /// SNORD29 /// SNORD31 / Fold change vs veh, SNHG1 /// SNORD22 /// SNORD25 /// SNORD26 /// SNORD27 /// SNORD28 /// SNORD29 /// SNORD31 / Fold change (Aza/veh), C12orf56 (ProbeSet 11735607_a_at) / Fold change (ACY-1035/veh), C12orf56 (ProbeSet 11735607_a_at) / Fold change (Aza/veh), FGFR1OP (ProbeSet 11751329_s_at) / Fold change (ACY-1035/veh), FGFR1OP (ProbeSet 11751329_s_at) / Fold change (Aza/veh), VPS36 (ProbeSet 11739960_a_at) / Fold change (ACY-1035/veh), VPS36 (ProbeSet 11739960_a_at) / RFU SYPL1 (11715823_x_at) / Fold change /veh SYPL1 (11715823_x_at) / RFU IGFBP7 (11715501_s_at) / Fold change /veh IGFBP7 (11715501_s_at) / RFU REEP3 (11722064_at) / Fold change /veh REEP3 (11722064_at) / RFU IGLL1 (11728026_x_at) / Fold change /veh IGLL1 (11728026_x_at): dose or concentration left out as unconfirmed. Particulars: ProbeSet 11726661_s_at; LIST B.

As for `Nc1ncn([C@@H]2O[C@H](CO)[C@@H](O)[C@H]2O)c(=O)n1` [azacitidine], the “Fold change vs veh, GPN3” value is 0.91.
